In patent US8110681B2, “Compounds for the treatment of spinal muscular atrophy and other uses” (The United States of America as represented by the …, priority 2006, dated 2012):
Like-named read-outs stand apart in the source and are kept apart here.

Tested on: SMN2-linked luciferase-reporter gene construct
Assay: SMN splice reporter assay (SMN2-linked luciferase reporter, Example 10)
Type: cell-based
Conditions: for maximal fold induction: read-out: SMN Splice Reporter Assay (Example 10) Avg MaxFold Increase
How it was run: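 Cervical carcinoma cells stably carrying an SMN2–luciferase splice reporter, in which luciferase is in frame only when SMN2 exon 7 is included, were treated with compound. Luciferase activity was read and expressed as fold increase over untreated transformed cells.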

[1] = maximum fold increase of reporter signal, average
[2] = SMN2-linked luciferase reporter, average
[3] = SMN2-linked luciferase reporter, average maximum fold increase

| Structure (SMILES) | maximal fold induction [1] | EC50 [2] [nM] | maximal fold induction [3] |
| --- | --- | --- | --- |
| CC(C(=O)OC(C)(C)C)c1ccc(N2Cc3c(cccc3-c3cccs3)C2=O)cc1 (stereo not shown) [ALB-112191] | 1.12 | – | – |
| CC(C(=O)OC(C)(C)C)c1ccc(N2Cc3ccc(C#N)cc3C2=O)cc1 (stereo not shown) [ALB-112445] | 1.13 | – | – |
| COc1ccc2c(c1)C(=O)N(c1ccc(C3CC3)cc1)C2 [ALB-115803] | – | 15 | 1.26 |
| Cc1ccc(-c2cc(C(C)C(=O)OC(C)(C)C)ccc2N2Cc3ccccc3C2=O)cc1 (stereo not shown) [ALB-112081] | 1.03 | – | – |
| CC(C)c1ccc(N2Cc3ccc(NC(=O)N(C)C(C)C)cc3C2=O)cc1 [ALB-118899] | – | – | 1.08 |
| CC(C)c1ccc2c(c1)C(=O)N(c1ccc(C(C)C(=O)O)cc1)C2 (stereo not shown) [ALB-113563] | 1.8 | 55 | – |
| CC(C(=O)OC(C)(C)C)c1ccc(N2Cc3cccc(Br)c3C2=O)cc1 (stereo not shown) [ALB-112065] | 1.22 | 1340 | – |
| CCc1ccc(N2Cc3ccc(OC)cc3C2=O)cc1 [ALB-115085] | 1.47 | 58 | – |
| CC(C(=O)OC(C)(C)C)c1ccc(N2Cc3ncccc3C2=O)cc1 (stereo not shown) [ALB-112087] | 1.05 | – | – |
| CC(C(=O)OC(C)(C)C)c1ccc(N2Cc3ccc(-c4ccc(Cl)c(Cl)c4)cc3C2=O)cc1 (stereo not shown) [ALB-112475] | 1.05 | 114 | – |
| CC(C(=O)OC(C)(C)C)c1ccc(N2Cc3ccccc3C2=O)c(-c2ccc(Cl)c(Cl)c2)c1 (stereo not shown) [ALB-112080] | 1.03 | – | – |
| CC(C(=O)O)c1ccc(N2Cc3cccc(-c4ccccc4)c3C2=O)cc1 (stereo not shown) [ALB-112155] | 1.19 | 26300 | – |
| CC(C(=O)O)c1ccc(N2Cc3ccccc3C2=O)cc1-c1cccnc1 (stereo not shown) [ALB-112199] | 1.08 | – | – |
| CC(C)c1ccc(N2Cc3ccc(N(C)C(=O)N(C)C)cc3C2=O)cc1 [ALB-118901] | – | 493 | 1.31 |
| CC(C)c1ccc(N2Cc3cc(N(C)C)ccc3C2=O)cc1 [ALB-117752] | 1.38 | 42 | – |
| CC(C(=O)O)c1ccc(N2Cc3cccc(-c4ccc(Cl)cc4)c3C2=O)cc1 (stereo not shown) [ALB-112175] | 1.37 | 16900 | – |
| CC(CN1CCOCC1)c1ccc(N2Cc3ccccc3C2=O)cc1 (stereo not shown) [ALB-113758] | 1.29 | 1400 | – |
| CC(C(=O)OC(C)(C)C)c1ccc(N2Cc3cc(-c4ccccc4)ccc3C2=O)cc1 (stereo not shown) [ALB-111888] | 1.1 | – | – |
| CC(C)NC(=O)Nc1ccc2c(c1)C(=O)N(c1ccc(C(C)C)cc1)C2 [ALB-118559] | – | – | 1.1 |
| CC(C)c1ccc(N2Cc3ccc(CN(C)C)cc3C2=O)cc1 [ALB-116934] | 1.05 | – | – |
| COc1ccc(C(=O)Nc2ccc3c(c2)C(=O)N(c2ccc(C(C)C(=O)OC(C)(C)C)cc2)C3)cc1 (stereo not shown) [ALB-111954] | 1.04 | – | – |
| COc1ccc(-c2cc(C(C)C(=O)O)ccc2N2Cc3ccccc3C2=O)cc1 (stereo not shown) [ALB-112086] | 1.08 | – | – |
| O=C1c2cc(Br)ccc2CN1c1ccc(C2CCCCC2)cc1 [ALB-115590] | 1.11 | – | – |
| COc1ccc(-c2cc(N3Cc4ccccc4C3=O)ccc2C(C)C(=O)OC(C)(C)C)cc1 (stereo not shown) [ALB-112001] | 1.02 | – | – |
| CC(=O)N(C)c1ccc2c(c1)C(=O)N(c1ccc(C(C)C)cc1)C2 [ALB-117047] | – | 269 | 1.39 |

| Structure (SMILES) | maximal fold induction [1] | EC50 [2] [nM] | maximal fold induction [3] |
| --- | --- | --- | --- |
| COc1cc2c(c(OC)c1)C(=O)N(c1ccc(C(C)C)cc1)C2 [ALB-118034] | 1.3 | 447 | – |
| CC(C(=O)O)c1ccc(N2Cc3cccc([N+](=O)[O-])c3C2=O)cc1 (stereo not shown) [ALB-111995] | 1.25 | 12000 | – |
| COc1ccc2c(c1)CN(c1ccc(C(C)C)cc1)C2=O [ALB-117453] | 1.28 | 180 | – |
| CC(C(=O)O)c1ccc(N2Cc3ccc(NS(C)(=O)=O)cc3C2=O)cc1 (stereo not shown) [ALB-112071] | 1.07 | – | – |
| CC(C(=O)OC(C)(C)C)c1ccc(N2Cc3ccccc3C2=O)cc1C#N (stereo not shown) [ALB-112435] | 1.2 | 5980 | – |
| COc1ccc(C(=O)Nc2ccc3c(c2)C(=O)N(c2ccc(C(C)C(=O)O)cc2)C3)cc1 (stereo not shown) [ALB-111984] | 1.19 | 9460 | – |
| COc1ccc(-c2cccc3c2C(=O)N(c2ccc(C(C)C(=O)O)cc2)C3)cc1 (stereo not shown) [ALB-112156] | 1.27 | – | – |
| CC(C(=O)O)c1ccc(N2Cc3ccc(C4CC4)cc3C2=O)cc1 (stereo not shown) [ALB-115716] | 1.59 | 29 | – |
| CC(=O)Nc1ccc2c(c1)C(=O)N(c1ccc(C(C)C(=O)OC(C)(C)C)cc1)C2 (stereo not shown) [ALB-111960] | 1.24 | 6620 | – |
| Cc1ccc(N2Cc3ccccc3C2=O)cc1C [ALB-115711] | 1.33 | 274 | – |
| CC(C(=O)O)c1ccc(N2Cc3cc(N)ccc3C2=O)cc1 (stereo not shown) [ALB-111950a] | 1.07 | – | – |
| COc1ccc(-c2ccc3c(c2)C(=O)N(c2ccc(C(C)C)cc2)C3)cc1 [ALB-118038] | 1.08 | – | – |
| CC(C(=O)O)c1ccc(N2Cc3ccccc3C2=O)cc1-c1cncnc1 (stereo not shown) [ALB-112232] | 1.05 | – | – |
| CC(C)=Cc1ccc2c(c1)C(=O)N(c1ccc(C(C)C)cc1)C2 [ALB-115807] | – | 155 | 1.3 |
| CC(C(=O)OC(C)(C)C)c1ccc(N2Cc3ccccc3C2=O)cc1-c1cncnc1 (stereo not shown) [ALB-112195] | 1.06 | – | – |
| CNc1ccc2c(c1)C(=O)N(c1ccc(C(C)C(=O)OC(C)(C)C)cc1)C2 (stereo not shown) [ALB-112170] | 1.27 | 1040 | – |
| CC(C(=O)NS(=O)(=O)c1ccccc1)c1ccc(N2Cc3ccccc3C2=O)cc1 (stereo not shown) [ALB-111747] | 1.04 | – | – |
| CC(C)Oc1ccc2c(c1)C(=O)N(c1ccc(C(C)C(=O)O)cc1)C2 (stereo not shown) [ALB-113492] | 1.67 | 24 | – |
| CC(C(=O)O)c1ccc(N2Cc3ccc(-c4cccnc4)cc3C2=O)cc1 (stereo not shown) [ALB-112514] | 1.25 | – | – |
| CC(C(=O)O)c1ccc(N2Cc3ccc(OCc4ccccc4)cc3C2=O)cc1 (stereo not shown) [ALB-115326] | 1.24 | – | – |
| CC(=O)c1ccc2c(c1)C(=O)N(c1ccc(C(C)C(=O)O)cc1)C2 (stereo not shown) [ALB-113387] | 1.18 | 50 | – |
| Cc1ccc(-c2cccc3c2CN(c2ccc(C(C)C(=O)OC(C)(C)C)cc2)C3=O)cc1 (stereo not shown) [ALB-112188] | 1.08 | – | – |
| CCNC(=O)Nc1ccc2c(c1)C(=O)N(c1ccc(C(C)C)cc1)C2 [ALB-118414] | – | 3530 | 1.35 |
| Cc1cc(C(C)C(=O)O)ccc1N1Cc2ccccc2C1=O (stereo not shown) [ALB-112487] | 1.17 | – | – |
| CCN(C)C(=O)Nc1ccc2c(c1)C(=O)N(c1ccc(C(C)C)cc1)C2 [ALB-118732] | – | – | 1.15 |

| Structure (SMILES) | maximal fold induction [1] | EC50 [2] [nM] | maximal fold induction [3] |
| --- | --- | --- | --- |
| CC(C(=O)OC(C)(C)C)c1ccc(N2Cc3cc(-c4cncnc4)ccc3C2=O)cc1 (stereo not shown) [ALB-111991] | 1.09 | – | – |
| CC(C(=O)O)c1ccc(N2Cc3cc(-c4ccc(Cl)c(Cl)c4)ccc3C2=O)cc1 (stereo not shown) [ALB-111885] | 1.09 | – | – |
| CC(C(=O)O)c1ccc(N2Cc3cc(Cl)ccc3C2=O)cc1 (stereo not shown) [ALB-111762] | 1.38 | 358 | – |
| Cc1cc(N2Cc3ccccc3C2=O)ccc1C(C)C(=O)OC(C)(C)C (stereo not shown) [ALB-112438] | 1.42 | 2710 | – |
| CC(C(=O)O)c1ccc(N2Cc3cccc(Cl)c3C2=O)cc1 (stereo not shown) [ALB-111784] | 1.41 | 1130 | – |
| CC(C(=O)O)c1ccc(N2Cc3ccc(OCC(F)(F)F)cc3C2=O)cc1 (stereo not shown) [ALB-113966] | 1.78 | 663 | – |
| CC(CF)c1ccc(N2Cc3ccccc3C2=O)cc1 (stereo not shown) [ALB-114090] | 1.47 | 214 | – |
| Cc1ccc2c(c1)C(=O)N(c1ccc(C3CCCCC3)cc1)C2 [ALB-115717] | 1.06 | – | – |
| O=C1c2cc(Br)ccc2CN1c1ccc(C2CC2)cc1 [ALB-115718] | 1.32 | 22 | – |
| CCCc1ccc(N2Cc3ccccc3C2=O)cc1 [ALB-115499] | 1.27 | 83 | – |
| CCOc1cccc2c1C(=O)N(c1ccc(C(C)C)cc1)C2 [ALB-118278] | 1.5 | 1380 | – |
| O=C1c2ccccc2CN1c1ccc(C2CCCCC2)cc1 [ALB-115423] | 1.21 | 29 | – |
| COCCc1ccc(N2Cc3ccccc3C2=O)cc1 [ALB-115073] | 1.19 | – | – |
| CCCCCOc1ccc2c(c1)C(=O)N(c1ccc(C(C)C(=O)O)cc1)C2 (stereo not shown) [ALB-113494] | 1.75 | 1170 | – |
| CC(C(=O)OCc1ccccc1)c1ccc(N2Cc3ccccc3C2=O)cc1 (stereo not shown) [ALB-111733] | 1.56 | 528 | – |
| O=C1c2ccccc2CN1c1ccc(C2(C(=O)O)CCCC2)cc1 [ALB-112431] | 1.21 | – | – |
| CC(C(=O)OC(C)(C)C)c1ccc(N2Cc3cccc(-c4ccc(Cl)c(Cl)c4)c3C2=O)cc1 (stereo not shown) [ALB-112149] | 1.06 | – | – |
| COc1ccc(-c2ccc3c(c2)CN(c2ccc(C(C)C(=O)O)cc2)C3=O)cc1 (stereo not shown) [ALB-111892] | 1.46 | 4310 | – |
| CC(C)(C)OC(=O)C1(c2ccc(N3Cc4ccccc4C3=O)cc2)CCCC1 [ALB-112362] | 1.05 | – | – |
| Cc1cc(N2Cc3ccccc3C2=O)ccc1C(C)C(=O)O (stereo not shown) [ALB-112485] | 1.3 | – | – |
| CC(C(=O)OC(C)(C)C)c1ccc(N2Cc3ccccc3C2=O)c(-c2cccs2)c1 (stereo not shown) [ALB-112196] | 1.09 | – | – |
| Cc1cccc2c1CN(c1ccc(C(C)C(=O)O)cc1)C2=O (stereo not shown) [ALB-112555] | 1.64 | 5900 | – |
| CC(CO)c1ccc(N2Cc3ccccc3C2=O)cc1 (stereo not shown) [ALB-113309] | 1.19 | 144 | – |
| CC(C(=O)O)c1ccc(N2CC3=C(CC=CC3)C2=O)cc1 (stereo not shown) [ALB-112896] | 1.58 | 1010 | – |
| Cc1ccc(-c2ccc3c(c2)C(=O)N(c2ccc(C(C)C(=O)O)cc2)C3)cc1 (stereo not shown) [ALB-112447] | 1.27 | 2020 | – |
